In the supplement of paper PMC10307832:

Tests used:
Assay in all cases: relative viability (nuclei count vs DMSO), 5 days (fraction); higher = more cells survive
Palbociclib + Phenformin = compound: CC(=O)c1c(C)c2cnc(Nc3ccc(N4CCNCC4)cn3)nc2n(C2CCCC2)c1=O [Palbociclib] + N=C(N)NC(=N)NCCc1ccccc1 [Phenformin] (partner 250 µM)
Summary of the method: (§1)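 One day after seeding in 1536-well plates, lung cancer cell lines were dosed by pin tool. Dosing was either single-drug or a fixed anchor-drug dose plus five library-drug doses (not always all listed) in √10 steps. After 5 days, nuclei were stained in one fix-and-stain step and counted on 4× images, and relative viability is the nuclei count of treated wells over that of vehicle wells, given as the median of duplicate plates.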

Palbociclib + Navitoclax = compound: CC(=O)c1c(C)c2cnc(Nc3ccc(N4CCNCC4)cn3)nc2n(C2CCCC2)c1=O [Palbociclib] + CC1(C)CCC(c2ccc(Cl)cc2)=C(CN2CCN(c3ccc(C(=O)NS(=O)(=O)c4ccc(N[C@H](CCN5CCOCC5)CSc5ccccc5)c(S(=O)(=O)C(F)(F)F)c4)cc3)CC2)C1 [Navitoclax] (partner 0.5 µM)
Summary of the method: as §1

Palbociclib + Tozasertib = compound: CC(=O)c1c(C)c2cnc(Nc3ccc(N4CCNCC4)cn3)nc2n(C2CCCC2)c1=O [Palbociclib] + Cc1cc(Nc2cc(N3CCN(C)CC3)nc(Sc3ccc(NC(=O)C4CC4)cc3)n2)n[nH]1 [Tozasertib] (partner 0.1 µM)
Summary of the method: as §1

Palbociclib + AZD7762 = compound: CC(=O)c1c(C)c2cnc(Nc3ccc(N4CCNCC4)cn3)nc2n(C2CCCC2)c1=O [Palbociclib] + NC(=O)Nc1cc(-c2cccc(F)c2)sc1C(=O)N[C@H]1CCCNC1 [AZD7762] (partner 0.2 µM)
Summary of the method: as §1

| Cell Line | relative viability (Palbociclib + Phenformin; first compound 0.01 µM) | relative viability (Palbociclib + Phenformin; first compound 0.03162 µM) | relative viability (Palbociclib + Phenformin; first compound 0.1 µM) | relative viability (Palbociclib + Phenformin; first compound 0.3162 µM) | relative viability (Palbociclib + Phenformin; first compound 1 µM) | relative viability (Palbociclib + Navitoclax; first compound 0.01 µM) | relative viability (Palbociclib + Navitoclax; first compound 0.03162 µM) | relative viability (Palbociclib + Navitoclax; first compound 0.1 µM) | relative viability (Palbociclib + Navitoclax; first compound 0.3162 µM) | relative viability (Palbociclib + Navitoclax; first compound 1 µM) | relative viability (Palbociclib + Tozasertib; first compound 0.01 µM) | relative viability (Palbociclib + Tozasertib; first compound 0.03162 µM) | relative viability (Palbociclib + Tozasertib; first compound 0.1 µM) | relative viability (Palbociclib + Tozasertib; first compound 0.3162 µM) | relative viability (Palbociclib + Tozasertib; first compound 1 µM) | relative viability (Palbociclib + AZD7762; first compound 0.01 µM) | relative viability (Palbociclib + AZD7762; first compound 0.1 µM) | relative viability (Palbociclib + AZD7762; first compound 0.3162 µM) | relative viability (Palbociclib + AZD7762; first compound 1 µM) | relative viability (Palbociclib + AZD7762; first compound 0.03162 µM) |
| --- | --- | --- | --- | --- | --- | --- | --- | --- | --- | --- | --- | --- | --- | --- | --- | --- | --- | --- | --- | --- |
| NCI-H1563 | 0.709 | 0.636 | 0.639 | 0.654 | 0.537 | – | – | – | – | – | – | – | – | – | – | – | – | – | – | – |
| SK-LU-1 | 0.546 | 0.418 | 0.309 | 0.314 | 0.254 | 0.938 | 0.757 | 0.725 | 0.539 | 0.733 | 0.334 | 0.33 | 0.266 | 0.251 | 0.228 | – | – | – | – | – |
| EPLC-272H | 0.316 | – | 0.265 | 0.291 | 0.198 | 1.21 | – | 1.06 | 1.06 | 0.833 | 0.326 | – | 0.331 | 0.339 | 0.42 | 0.306 | 0.383 | 0.251 | 0.274 | – |
| NCI-H2342 | 0.569 | 0.555 | 0.477 | 0.564 | 0.441 | – | – | – | – | – | 0.556 | 0.4 | 0.493 | 0.544 | 0.409 | 0.457 | 0.414 | 0.409 | 0.399 | 0.467 |
| ABC-1 | 0.227 | 0.202 | 0.232 | 0.233 | 0.24 | – | – | – | – | – | 0.161 | 0.184 | 0.18 | 0.215 | 0.217 | 0.931 | 0.727 | 0.957 | 0.752 | 0.614 |
| LCLC-97TM1 | 0.41 | 0.32 | 0.414 | 0.351 | 0.227 | 0.401 | – | 0.27 | 0.294 | 0.281 | 0.218 | 0.206 | 0.202 | 0.216 | 0.169 | 0.391 | 0.252 | 0.199 | 0.152 | – |
| SW 900 | 0.632 | – | 0.435 | 0.448 | 0.298 | – | – | – | – | – | 0.557 | – | 0.461 | 0.417 | 0.506 | 0.67 | 0.641 | 0.644 | 0.46 | – |
| NCI-H661 | 0.264 | 0.29 | 0.258 | 0.279 | 0.282 | – | – | – | – | – | 0.332 | 0.346 | 0.324 | 0.302 | 0.3 | – | – | – | – | – |
| PC-3 [JPC-3] | 0.514 | 0.464 | 0.459 | 0.445 | 0.378 | 0.769 | 0.778 | 0.66 | 0.721 | 0.635 | 0.918 | 0.778 | 0.823 | 0.774 | 0.596 | 0.794 | 0.619 | 0.592 | 0.41 | 0.814 |
| SW 1573 | 0.364 | 0.324 | 0.234 | 0.216 | 0.219 | 0.986 | 1 | 0.838 | 0.642 | 0.439 | 0.151 | 0.185 | 0.167 | 0.148 | 0.163 | – | – | – | – | – |
| NCI-H838 | 0.628 | 0.562 | 0.402 | 0.467 | 0.202 | 1.16 | 1.03 | 0.859 | 0.938 | 0.423 | 0.272 | 0.248 | 0.213 | 0.194 | 0.204 | 0.85 | 0.815 | 0.862 | 0.693 | 0.891 |
| NCI-H2087 | 0.449 | – | 0.291 | 0.229 | 0.189 | 1.04 | 0.843 | 0.802 | 0.685 | 0.495 | 0.212 | – | 0.189 | 0.189 | 0.156 | 1.18 | 1.03 | 0.902 | 0.641 | 1.16 |
| NCI-H1666 | 0.57 | 0.462 | 0.518 | 0.411 | 0.427 | 0.929 | 0.782 | 0.792 | 0.544 | 0.448 | 0.642 | 0.585 | 0.539 | 0.47 | 0.458 | 0.881 | 0.842 | 0.74 | 0.684 | 0.58 |
| HCC-366 | 0.626 | – | 0.645 | 0.427 | 0.396 | 1.05 | – | 0.996 | 0.877 | 0.803 | 0.135 | – | 0.149 | 0.129 | 0.139 | 0.198 | 0.43 | 0.232 | 0.11 | – |
| NCI-H1299 | – | – | – | – | – | 1.09 | 0.949 | 0.909 | 0.846 | 0.715 | – | – | – | – | – | – | – | – | – | – |
| NCI-H1437 | 0.321 | 0.445 | 0.258 | 0.237 | 0.199 | 1.1 | 1.04 | 0.933 | 0.923 | 0.563 | 0.368 | 0.351 | 0.287 | 0.376 | 0.307 | 1.15 | 1.03 | 1.09 | 0.73 | 1.09 |
| HARA | 0.509 | – | 0.309 | 0.258 | 0.203 | 1.15 | 1.11 | 0.997 | 0.91 | 0.662 | 0.108 | – | 0.0705 | 0.102 | 0.0769 | 0.379 | 0.244 | 0.364 | 0.242 | 0.137 |
| H3255 | 0.38 | 0.361 | 0.319 | 0.368 | 0.287 | 0.632 | 0.512 | 0.406 | 0.567 | 0.338 | 0.702 | 0.613 | 0.522 | 0.591 | 0.309 | 1.07 | 0.831 | 0.798 | 0.506 | 0.8 |
| EMC-BAC-2 | 0.537 | 0.394 | 0.401 | 0.374 | 0.342 | 1.16 | 1.07 | 1.06 | 0.953 | 0.731 | 0.24 | 0.298 | 0.277 | 0.285 | 0.29 | 1.13 | 0.955 | 1.02 | 0.713 | 0.935 |
| COR-L 105 | 0.467 | 0.54 | 0.381 | 0.385 | 0.33 | 0.943 | 0.808 | 0.669 | 0.586 | 0.401 | 0.379 | 0.335 | 0.341 | 0.308 | 0.318 | – | – | – | – | – |
